According to patent US12091411B2, “IRAK degraders and uses thereof” (Kymera Therapeutics, Inc., priority 2022, dated 2024):
Where two headings read alike, the source gives them in different places.

Target: T1, IRAK4 (Homo sapiens, UniProt Q9NWZ3)
T1 construct: Degradation of IRAK4 in OCI-LY10 was quantitatively measured using Meso Scale Discovery technology; endogenous in cells; host or cells: OCI-LY10
T1 sequence (Q9NWZ3 1-460): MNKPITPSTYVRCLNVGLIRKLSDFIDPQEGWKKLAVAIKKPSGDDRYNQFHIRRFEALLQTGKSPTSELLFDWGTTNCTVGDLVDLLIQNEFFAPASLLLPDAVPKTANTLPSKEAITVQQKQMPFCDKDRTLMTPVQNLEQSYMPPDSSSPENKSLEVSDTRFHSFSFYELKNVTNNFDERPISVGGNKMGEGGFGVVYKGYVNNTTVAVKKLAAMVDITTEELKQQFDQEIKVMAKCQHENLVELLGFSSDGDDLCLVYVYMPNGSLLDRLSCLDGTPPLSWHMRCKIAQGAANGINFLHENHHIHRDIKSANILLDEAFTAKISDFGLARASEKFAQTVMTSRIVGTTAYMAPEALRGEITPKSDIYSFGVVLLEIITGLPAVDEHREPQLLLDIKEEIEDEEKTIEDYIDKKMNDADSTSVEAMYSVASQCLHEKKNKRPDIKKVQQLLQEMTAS
Assay: IRAK4 MSD Degradation in OCI-LY10
Type: cell-based
Settings: OCI-LY10 cells, MSD
Procedure, shortened: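 DC50, from a three-parameter logistic fit and reported as letter bins A (<0.01 μM), B, C, D (>0.2 μM or not tested), reflects IRAK4 loss measured by MSD electrochemiluminescence in OCI-LY10 lysates. Treatment: 8 doses, 1:3 steps, top 1 to 10 μM, 4 to 24 h, 37 °C.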

[1] = 4 hrs incubation, read-out: IRAK4 degradation in OCI-LY10 at 4 hrs: DC50
[2] = 24 hrs incubation, read-out: IRAK4 degradation in OCI-LY10 at 24 hrs: DC50

| Structure (SMILES) | DC50 [1] | DC50 [2] |
| --- | --- | --- |
| CC1CN(c2ccn3ncc(C(=O)Nc4cn([C@H]5CC[C@H](CN6CCN(CC#Cc7cccc8c7n(C)c(=O)n8C7CCC(=O)NC7=O)CC6)CC5)nc4C(F)F)c3n2)CC(C)O1 (stereo partly shown) [I-289] | > 200 nM | > 200 nM |
| Cn1c(=O)n(C2CCC(=O)NC2=O)c2cccc(C#CCN3CCN(C[C@H]4CC[C@H](n5cc(NC(=O)c6cnn7ccc(N8C[C@H]9CC[C@@H](C8)O9)nc67)c(C(F)F)n5)CC4)CC3)c21 (stereo partly shown) [I-290] | > 200 nM | < 10 nM |
| Cn1c(=O)n(C2CCC(=O)NC2=O)c2cccc(C#CCN3CCN(C[C@H]4CC[C@H](n5cc(NC(=O)c6cnn7ccc(N8CCCOCC8)nc67)c(C(F)F)n5)CC4)CC3)c21 (stereo partly shown) [I-291] | > 200 nM | < 10 nM |
| Cc1ccc(-c2nn([C@H]3CC[C@H](CN(C)C4CCN(c5cccc6c5n(C)c(=O)n6C5CCC(=O)NC5=O)CC4)CC3)cc2NC(=O)c2cnn3cccnc23)nc1 (stereo partly shown) [I-292] | > 200 nM | < 10 nM |
| Cc1ccc(-c2nn([C@H]3CC[C@H](CN(C)C4CCN(c5cccc6c5n(C)c(=O)n6C5CCC(=O)NC5=O)CC4)CC3)cc2NC(=O)c2cnn3cccnc23)c(F)c1 (stereo partly shown) [I-293] | > 200 nM | > 200 nM |
| Cn1c(=O)n(C2CCC(=O)NC2=O)c2cccc(C#CCN3CCN(C[C@H]4CC[C@H](n5cc(NC(=O)c6cnn7ccc(N8CCSCC8)nc67)c(C(F)F)n5)CC4)CC3)c21 (stereo partly shown) [I-294] | > 200 nM | < 10 nM |
| Cn1c(=O)n(C2CCC(=O)NC2=O)c2cccc(C#CCN3CCN(C[C@H]4CC[C@H](n5cc(NC(=O)c6cnn7ccc(N8CCS(=O)(=O)CC8)nc67)c(C(F)F)n5)CC4)CC3)c21 (stereo partly shown) [I-295] | > 200 nM | < 10 nM |
| CN1CC2(CCN(c3ccn4ncc(C(=O)Nc5cn([C@H]6CC[C@H](CN7CCN(CC#Cc8cccc9c8n(C)c(=O)n9C8CCC(=O)NC8=O)CC7)CC6)nc5C(F)F)c4n3)CC2)C1 (stereo partly shown) [I-297] | > 200 nM | > 200 nM |
| Cn1c(=O)n(C2CCC(=O)NC2=O)c2cccc(C#CCN3CCN(C[C@H]4CC[C@H](n5cc(NC(=O)c6cnn7ccc(C8CCOCC8)nc67)c(C(F)F)n5)CC4)CC3)c21 (stereo partly shown) [I-298] | > 200 nM | < 10 nM |
| Cn1c(=O)n(C2CCC(=O)NC2=O)c2cccc(C#CCN3CCN(C[C@H]4CC[C@H](n5cc(NC(=O)c6cnn7ccc(N8CCNCC8)nc67)c(C(F)F)n5)CC4)CC3)c21 (stereo partly shown) [I-299] | > 200 nM | < 10 nM |
| CN1CCN(c2ccn3ncc(C(=O)Nc4cn([C@H]5CC[C@H](CN6CCN(CC#Cc7cccc8c7n(C)c(=O)n8C7CCC(=O)NC7=O)CC6)CC5)nc4C(F)F)c3n2)CC1 (stereo partly shown) [I-300] | > 200 nM | < 10 nM |
| Cn1c(=O)n(C2CCC(=O)NC2=O)c2cccc(C#CCN3CCN(C[C@H]4CC[C@H](n5cc(NC(=O)c6cnn7ccc(C8COCCN8)nc67)c(C(F)F)n5)CC4)CC3)c21 (stereo partly shown) [I-301] | > 200 nM | > 200 nM |
| CN1CCOCC1c1ccn2ncc(C(=O)Nc3cn([C@H]4CC[C@H](CN5CCN(CC#Cc6cccc7c6n(C)c(=O)n7C6CCC(=O)NC6=O)CC5)CC4)nc3C(F)F)c2n1 (stereo partly shown) [I-302] | > 200 nM | > 200 nM |
| Cn1c(=O)n(C2CCC(=O)NC2=O)c2cccc(C#CCOC3CCN(C[C@H]4CC[C@H](n5cc(NC(=O)c6cnn7ccc(N8CCSCC8)nc67)c(C(F)F)n5)CC4)CC3)c21 (stereo partly shown) [I-303] | > 200 nM | < 10 nM |
| Cn1c(=O)n(C2CCC(=O)NC2=O)c2cccc(C#CCOC3CCN(C[C@H]4CC[C@H](n5cc(NC(=O)c6cnn7ccc(N8CCS(=O)(=O)CC8)nc67)c(C(F)F)n5)CC4)CC3)c21 (stereo partly shown) [I-304] | > 200 nM | < 10 nM |
| Cn1c(=O)n(C2CCC(=O)NC2=O)c2cccc(C#CCOC3CCN(C[C@H]4CC[C@H](n5cc(NC(=O)c6cnn7ccc(N8CCC9(CC8)COC9)nc67)c(C(F)F)n5)CC4)CC3)c21 (stereo partly shown) [I-305] | > 200 nM | > 200 nM |
| CN1CC2(CCN(c3ccn4ncc(C(=O)Nc5cn([C@H]6CC[C@H](CN7CCC(OCC#Cc8cccc9c8n(C)c(=O)n9C8CCC(=O)NC8=O)CC7)CC6)nc5C(F)F)c4n3)CC2)C1 (stereo partly shown) [I-306] | > 200 nM | > 200 nM |
| Cn1c(=O)n(C2CCC(=O)NC2=O)c2cccc(C#CCOC3CCN(C[C@H]4CC[C@H](n5cc(NC(=O)c6cnn7ccc(C8CCOCC8)nc67)c(C(F)F)n5)CC4)CC3)c21 (stereo partly shown) [I-307] | > 200 nM | < 10 nM |
| Cn1c(=O)n(C2CCC(=O)NC2=O)c2cccc(C#CCOC3CCN(C[C@H]4CC[C@H](n5cc(NC(=O)c6cnn7ccc(N8CCNCC8)nc67)c(C(F)F)n5)CC4)CC3)c21 (stereo partly shown) [I-308] | > 200 nM | < 10 nM |
| CN1CCN(c2ccn3ncc(C(=O)Nc4cn([C@H]5CC[C@H](CN6CCC(OCC#Cc7cccc8c7n(C)c(=O)n8C7CCC(=O)NC7=O)CC6)CC5)nc4C(F)F)c3n2)CC1 (stereo partly shown) [I-309] | > 200 nM | < 10 nM |
| Cn1c(=O)n(C2CCC(=O)NC2=O)c2cccc(C#CCOC3CCN(C[C@H]4CC[C@H](n5cc(NC(=O)c6cnn7ccc(C8COCCN8)nc67)c(C(F)F)n5)CC4)CC3)c21 (stereo partly shown) [I-310] | > 200 nM | > 200 nM |
| CN1CCOCC1c1ccn2ncc(C(=O)Nc3cn([C@H]4CC[C@H](CN5CCC(OCC#Cc6cccc7c6n(C)c(=O)n7C6CCC(=O)NC6=O)CC5)CC4)nc3C(F)F)c2n1 (stereo partly shown) [I-311] | > 200 nM | > 200 nM |
| Cn1c(=O)n(C2CCC(=O)NC2=O)c2cccc(N3CCC(N(CC(F)F)C[C@H]4CC[C@H](n5cc(NC(=O)c6cnn7cccnc67)c(C(F)F)n5)CC4)CC3)c21 (stereo partly shown) [I-312] | > 200 nM | > 200 nM |
| Cn1c(=O)n(C2CCC(=O)NC2=O)c2cccc(N3CCC(N(CC(F)(F)F)C[C@H]4CC[C@H](n5cc(NC(=O)c6cnn7cccnc67)c(C(F)F)n5)CC4)CC3)c21 (stereo partly shown) [I-313] | > 200 nM | > 200 nM |

Second part, the compound after the results:

| DC50 [1] | DC50 [2] | Structure (SMILES) |
| --- | --- | --- |
| > 200 nM | < 10 nM | CN(C[C@H]1CC[C@H](n2cc(NC(=O)c3cnn4ccc(N5CC(F)(F)C5)nc34)c(C(F)F)n2)CC1)C1CCN(c2cccc3c2n(C)c(=O)n3C2CCC(=O)NC2=O)CC1 (stereo partly shown) [I-276] |
| > 200 nM | < 10 nM | CN(C[C@H]1CC[C@H](n2cc(NC(=O)c3cnn4ccc(N5CCC5)nc34)c(C(F)F)n2)CC1)C1CCN(c2cccc3c2n(C)c(=O)n3C2CCC(=O)NC2=O)CC1 (stereo partly shown) [I-277] |
| > 200 nM | < 10 nM | CN(C[C@H]1CC[C@H](n2cc(NC(=O)c3cnn4ccc(N5CCCC5)nc34)c(C(F)F)n2)CC1)C1CCN(c2cccc3c2n(C)c(=O)n3C2CCC(=O)NC2=O)CC1 (stereo partly shown) [I-278] |
| > 200 nM | > 200 nM | Cn1c(=O)n(C2CCC(=O)NC2=O)c2cccc(C#CCN3CCN(C[C@H]4CC[C@H](n5cc(NC(=O)c6cnn7ccc(N8C[C@H]9C[C@@H]8CO9)nc67)c(C(C)(C)O)n5)CC4)CC3)c21 (stereo partly shown) [I-279] |
| > 200 nM | > 200 nM | Cn1c(=O)n(C2CCC(=O)NC2=O)c2cccc(C#CCOC3CCN(C[C@H]4CC[C@H](n5cc(NC(=O)c6cnn7ccc(N8C[C@H]9C[C@@H]8CO9)nc67)c(F)n5)CC4)CC3)c21 (stereo partly shown) [I-280] |
| > 200 nM | > 200 nM | Cn1c(=O)n(C2CCC(=O)NC2=O)c2cccc(C#CCN3CCN(C[C@H]4CC[C@H](n5cc(NC(=O)c6cnn7ccc(N8C[C@H]9C[C@@H]8CO9)nc67)c(F)n5)CC4)CC3)c21 (stereo partly shown) [I-281] |
| > 200 nM | 10 to 100 nM | CC1CCN(c2ccn3ncc(C(=O)Nc4cn([C@H]5CC[C@H](CN6CCN(CC#Cc7cccc8c7n(C)c(=O)n8C7CCC(=O)NC7=O)CC6)CC5)nc4C(F)F)c3n2)CC1 (stereo partly shown) [I-282] |
| > 200 nM | 10 to 100 nM | Cn1c(=O)n(C2CCC(=O)NC2=O)c2cccc(C#CCN3CCN(C[C@H]4CC[C@H](n5cc(NC(=O)c6cnn7ccc(N8CCCCCC8)nc67)c(C(F)F)n5)CC4)CC3)c21 (stereo partly shown) [I-283] |
| > 200 nM | > 200 nM | Cn1c(=O)n(C2CCC(=O)NC2=O)c2cccc(C#CCN3CCN(C[C@H]4CC[C@H](n5cc(NC(=O)c6cnn7cccnc67)c(C(C)(C)O)n5)CC4)CC3)c21 (stereo partly shown) [I-284] |
| > 200 nM | > 200 nM | Cn1c(=O)n(C2CCC(=O)NC2=O)c2cccc(C#CCN3CCN(C[C@H]4CC[C@H](n5cc(NC(=O)c6cnn7ccc(N8CCC8)nc67)c(C(C)(C)O)n5)CC4)CC3)c21 (stereo partly shown) [I-285] |
| > 200 nM | < 10 nM | Cn1c(=O)n(C2CCC(=O)NC2=O)c2cccc(C#CCN3CCN(C[C@H]4CC[C@H](n5cc(NC(=O)c6cnn7ccc(N8CCOC9(CC9)C8)nc67)c(C(F)F)n5)CC4)CC3)c21 (stereo partly shown) [I-286] |
| > 200 nM | < 10 nM | Cn1c(=O)n(C2CCC(=O)NC2=O)c2cccc(C#CCN3CCN(C[C@H]4CC[C@H](n5cc(NC(=O)c6cnn7ccc(N8CCOC9(CCC9)C8)nc67)c(C(F)F)n5)CC4)CC3)c21 (stereo partly shown) [I-287] |
| > 200 nM | > 200 nM | CC1CN(c2ccn3ncc(C(=O)Nc4cn([C@H]5CC[C@H](CN6CCN(CC#Cc7cccc8c7n(C)c(=O)n8C7CCC(=O)NC7=O)CC6)CC5)nc4C(F)F)c3n2)CCO1 (stereo partly shown) [I-288] |
| 10 to 100 nM | > 200 nM | Cn1c(=O)n(C2CCC(=O)NC2=O)c2cccc(C#CCN3CCN(C[C@H]4CC[C@H](n5cc(NC(=O)c6cnn7ccc(N8CCC9(CC8)COC9)nc67)c(C(F)F)n5)CC4)CC3)c21 (stereo partly shown) [I-296] |
